# According to article PMC12410723, “Structure-function studies of Vibrio cholerae quorum-sensing receptor CqsR signal recognition” (PLOS Pathogens, 2025):
# Assays:
# [1] = target: CqsR periplasmic domain (CqsRp) (Vibrio cholerae, UniProt Q9KR16); conditions: MST binding studies, summary of Fig 4
# WT CqsR = WT CqsR strain, exogenously added ethanolamine
# CqsR-Y169A = CqsR-Y169A strain, exogenously added ethanolamine
# CqsR-T196A = CqsR-T196A strain, exogenously added ethanolamine
# CqsR-W151A = CqsR-W151A strain, exogenously added ethanolamine
# CqsR-D171A = CqsR-D171A strain, exogenously added ethanolamine
# CqsR-D198N = CqsR-D198N strain, exogenously added ethanolamine
# CqsR = conditions: in vivo / in culture, high-cell-density phenotype; cited from earlier work
# CqsRp = conditions: thermal unfolding; cited from earlier work
compound,measurement,setting,value
CCC(N)CO (stereo not shown) [2-amino-1-butanol],CqsR binding (in words),[1],Weak CqsR binding
CC[C@H](N)CO [(S)-(+)-2-amino-1-butanol],CqsR binding (in words),[1],Weak CqsR binding
"C[C@H](N)C(=O)O [Alanine, alanine]",CqsR binding (in words),[1],not tolerated
"NCCO [Ethanolamine, ethanolamine]",qrr4 transcription (bioluminescence),WT CqsR,reduced in a dose-dependent manner
same,qrr4 transcription (bioluminescence),CqsR-Y169A,reduced to a level comparable to that of the WT
same,qrr4 transcription (bioluminescence),CqsR-T196A,reduced to a level comparable to that of the WT
same,qrr4 transcription (bioluminescence),CqsR-W151A,intermediate phenotype
same,qrr4 transcription (bioluminescence),CqsR-D171A,intermediate phenotype
same,qrr4 transcription (bioluminescence),CqsR-D198N,completely irresponsive
same,CqsR signaling agonism,CqsR,acted as CqsR signaling agonists
"OCCO [Ethylene glycol, ethylene glycol]",CqsR binding (in words),[1],No binding
"NCCN [Ethylenediamine, ethylenediamine]",CqsR binding (in words),[1],Weak CqsR binding
"OCC(O)CO [Glycerol, glycerol]",CqsR binding (in words),[1],No binding
"NCC(=O)O [Glycine, glycine]",CqsR binding (in words),[1],not tolerated
C[C@H](N)CO [L-alaninol],CqsRp melting temperature,CqsRp,increased
"NC(CO)CO [Serinol, serinol]",CqsRp melting temperature,CqsRp,increased
"NC(CO)(CO)CO [Tris, tris]",CqsR binding (in words),[1],Weak CqsR binding
NCCS [cysteamine],CqsR binding (in words),[1],not tolerated
NCC(N)=O [glycinamide],CqsR binding (in words),[1],not tolerated
CCC(N)CC [pentan-3-amine],CqsR binding (in words),[1],not tolerated
CCCO [propanol],CqsR binding (in words),[1],No binding
CCCN [propylamine],CqsR binding (in words),[1],not tolerated
